Results as given in US20090186854A1, “S-ALKYLISOTHIOURONIUM DERIVATIVES FOR THE TREATMENT OF INFLAMMATORY DISEASES” (Meditor Pharmaceuticals Ltd., priority 2006, published 2009).

Experiments:
healthy male subjects = assay: Phase I clinical trial, safety of escalating doses; type: in vivo, human; settings: 12 healthy male subjects
Method: Based on animal toxicological studies and on the accumulated data on human patients, S-ethylisothiouronium diethylphosphate was approved for a Phase I clinical trial. In this study, the pharmacokinetic profile as well as safety of escalating doses (0.6-2.4 mg/kg) of S-ethylisothiouronium diethylphosphate were assessed in 12 healthy male subjects.

rats = assay: Animal toxicological studies (single or repeated dose, LD50)

Substance: S-ethylisothiouronium diethylphosphate
- Adverse events (healthy male subjects; doses up to 1.2 mg/kg): no recorded adverse events
- Well tolerated dose (healthy male subjects; escalating doses 0.6-2.4 mg/kg): up to 1.2 mg/kg
- LD50 (rats; in rats): up to 400 mg/kg
- LD50 relative to therapeutically recommended dose (rats; rats LD50 vs therapeutically recommended dose of 0.6-1.2 mg/kg): 300-400 fold
